The values that follow come from article PMC5146677, “Structural Analysis of Glycine Sarcosine N-methyltransferase from Methanohalophilus portucalensis Reveals Mechanistic Insights into the Regulation of Methyltransferase Activity” (Scientific Reports, 2016).

Assay [1] concerns the target T1, MpGSMT (Methanohalophilus portucalensis, UniProt F6KV61).
T1 construct: gene gsmt
T1 sequence (F6KV61 1-263): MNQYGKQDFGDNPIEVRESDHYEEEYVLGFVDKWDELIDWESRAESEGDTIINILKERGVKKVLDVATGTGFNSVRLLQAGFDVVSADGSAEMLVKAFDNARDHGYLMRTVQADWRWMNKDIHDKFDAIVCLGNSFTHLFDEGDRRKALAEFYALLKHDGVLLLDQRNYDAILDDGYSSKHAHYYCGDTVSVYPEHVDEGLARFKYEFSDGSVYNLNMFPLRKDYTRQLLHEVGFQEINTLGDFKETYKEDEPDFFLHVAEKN
Description: X-ray crystal structure, co-crystal. The class given is binding. The settings on record: cofactor site; with sarcosine; 0.1 mM SAH.

Assay [2] concerns the target T1, MpGSMT. Description: X-ray crystal structure, soaking. The class given is binding.
Assay [3] deals with T2, MpGSMT (Methanohalophilus portucalensis, UniProt F6KV61, N100Q).
T2 construct: gene gsmt
Description: methyltransferase activity with betaine. The class given is biochemical. The settings on record: feedback inhibitor, allosteric; mutant has low activity.

For assay [4], the target named is T3, MpGSMT (Methanohalophilus portucalensis, UniProt F6KV61, H104K).
T3 construct: gene gsmt
Nature of the assay: methyltransferase activity with betaine. The class given is biochemical. The settings on record: feedback inhibitor, allosteric.

Assay [5] has as its target T1, MpGSMT. Description: X-ray crystal structure, co-crystal and soaking. It is filed as binding. The settings on record: active site; with SAH (5HIL) or SAM (5GWX); inactive conformation. An excerpt:
X-ray crystal structure, co-crystal and soaking on […] | crystal structure of […] in complex with the sarcosine substrate and the SAH cofactor

T3 sequence (F6KV61 entry or part of it H104K): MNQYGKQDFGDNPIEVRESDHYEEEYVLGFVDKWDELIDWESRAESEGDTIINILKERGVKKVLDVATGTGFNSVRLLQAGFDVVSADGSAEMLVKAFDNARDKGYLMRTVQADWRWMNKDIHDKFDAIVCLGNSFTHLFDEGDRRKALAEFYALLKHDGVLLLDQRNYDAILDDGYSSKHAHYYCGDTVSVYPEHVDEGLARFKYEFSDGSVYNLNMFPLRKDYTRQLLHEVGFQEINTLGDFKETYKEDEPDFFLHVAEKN
T2 sequence (F6KV61 entry or part of it N100Q): as the sequence (F6KV61 entry or part of it H104K) above, with N100Q, K104H counted along it

As to `Nc1ncnc2c1ncn2[C@@H]1O[C@H](CSCC[C@H](N)C(=O)O)[C@@H](O)[C@H]1O` [SAH], the “X-ray crystal structure, co-crystal” value on MpGSMT [1] is “Clear electron density is visible for bound sarcosine and SAH”.

`C[S+](CC[C@H](N)C(=O)O)C[C@H]1O[C@@H](n2cnc3c(N)ncnc32)[C@H](O)[C@@H]1O` (stereo partly drawn) [SAM]: the “X-ray crystal structure, soaking” value on MpGSMT [2] (cofactor site, binary (5HIK) or with sarcosine (5GWX), 2 mM SAM) is “clear electron density maps corresponding to sarcosine and SAM in the active site”.

Consider `C[N+](C)(C)CC(=O)[O-]` [betaine], for which the betaine sensitivity entry at MpGSMT [3] is “MpGSMT^N100Q displayed a decreased response to betaine”; at MpGSMT [4], “MpGSMT^H104K exhibited increased sensitivity to betaine”. Besides, the “X-ray crystal structure, soaking” value on MpGSMT [2] (allosteric feedback inhibitor site near Trp40, 1.7 M betaine soak) is recorded as “the observed MpGSMT structure indeed harbors a pocket for interacting directly with betaine”.

`CNCC(=O)O` [sarcosine]: the “X-ray crystal structure, co-crystal and soaking” value on MpGSMT [5] was “crystal structure of MpGSMT in complex with the sarcosine substrate and the SAH cofactor”.
